Source: US7928231B2, “Thienopyrazoles” (priority 2003, dated 2011)
Where a name gives a salt, the structure may show the parent alone.

Assays:
ITK = target: T1, ITK (Homo sapiens, UniProt Q08881); experiment: FlashPlate ITK protocol for ITK inhibition determination (ITK autophosphorylation, [γ-33P]ATP); assay type: biochemical; conditions: MBP-tagged ITK, read-out: IC50 (enzyme inhibition)-
T1 construct: made in house
T1 sequence (Q08881 1-620): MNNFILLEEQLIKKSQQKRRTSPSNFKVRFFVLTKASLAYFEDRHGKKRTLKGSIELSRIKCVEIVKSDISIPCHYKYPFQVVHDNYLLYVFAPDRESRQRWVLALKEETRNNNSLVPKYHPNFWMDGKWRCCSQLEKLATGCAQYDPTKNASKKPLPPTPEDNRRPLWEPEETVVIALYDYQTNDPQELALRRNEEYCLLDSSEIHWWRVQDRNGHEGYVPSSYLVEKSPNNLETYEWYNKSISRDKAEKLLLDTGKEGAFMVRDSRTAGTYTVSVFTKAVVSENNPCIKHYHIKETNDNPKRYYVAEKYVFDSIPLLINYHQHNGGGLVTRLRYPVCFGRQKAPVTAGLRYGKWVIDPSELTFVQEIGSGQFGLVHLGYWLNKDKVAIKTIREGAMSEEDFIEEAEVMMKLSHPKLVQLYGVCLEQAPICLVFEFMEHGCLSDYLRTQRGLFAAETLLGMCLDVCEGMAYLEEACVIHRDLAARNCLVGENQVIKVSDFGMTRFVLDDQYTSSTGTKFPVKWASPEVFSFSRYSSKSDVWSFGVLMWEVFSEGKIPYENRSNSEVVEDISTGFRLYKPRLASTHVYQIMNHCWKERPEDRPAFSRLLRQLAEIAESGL
Description: ITK kinase is produced with an N-terminal Maltose Binding Protein tag (MW=˜114 kDa) using a Baculovirus expression system. The transfer of radioactive [γ-^33P] phosphate from [γ-^33P]ATP to ITK during the autophosphorylation of ITK is measured by scintillation counting. Streptavidin-coated FlashPlate Plus™ 384 well microplates (PerkinElmer Life Sciences) are designed for in-plate radiometric assays. The interior of each well is permanently coated with a thin layer of scintillant and a covalently bound layer of Streptavidin. ITK is incubated with [γ-^33P]ATP, biotinylated anti-MBP antibody (Cell Signaling Technology™) and test compounds in a 384-well Streptavidin-coated FlashPlate. The biotinylated anti-MBP binds tightly to the MBP-tagged ITK and cross-links it to Streptavidin on the plate surface. Unreacted ^33P-ATP is washed away and ^33P-phosphorylated ITK is measured when the [γ-^33P] incorporated into ITK stimulates the scintillant on the well to emit light. Radioactivity is assessed in a Packard
TopCount scintillation counter. Reagents are pipetted and dispensed using Beckman Biomek robotic equipment. Test compounds (2 μl per well) are pre-diluted from 1 mM 100% dimethyl sulfoxide solutions into water containing 30% dimethyl sulfoxide to produce dose response curves (10 point curves from (final) 30 μM to ˜1 nM); all tests are performed in duplicate. Background binding is assessed by substituting the enzyme inhibitor EDTA (25 mM final concentration) for test compound and maximal binding is assessed by inclusion of assay buffer instead of compound. Test compounds are added to the wells first (2 μl) followed by 10 μl enzyme solution in assay buffer. After 30 minutes pre-incubation, all other reagents are added in a 10 μl volume. The final reagent concentrations/well are as follows: 20 nM enzyme, 0.25 μCi [γ-^33P]ATP, assay buffer: 20 mM HEPES (pH 7.5), 0.15 M NaCl, 3 mM MgCl2, 3 mM MnCl2, 0.01% Triton X-100, 1 mM DTT, 5% glycerol and 0.01% γ-globulin. The plate is incubated at room temperature (RT) for 60 minutes for the kinase reaction. The reaction is stopped with 20 μl of 50 mM EDTA and the biotinylated anti-MBP is allowed to bind to the ITK and the Streptavidin for a further 60 minutes at RT. The unbound reagents are washed away with 2×100 μl phosphate-buffered saline (PBS). Radioactivity is measured for 45 sec/well.

[1] = system: IL-4 production from anti-CD3-stimulated murine splenocytes; experiment: Anti-CD3 stimulated IL-4 assay from murine splenocytes; assay type: cell-based; conditions: Mus musculus, Splenocyte, 72 h; BALB/c splenocytes, anti-CD3 stimulation, 3 days, IL-4 ELISA; read-out: IC50 IL-4 release inhibition- assay
Description: Anti-CD3 stimulated IL-4 Assay from Murine Splenocytes.
The tyrosine kinase ITK is involved in intracellular signaling events induced by several lymphocyte surface receptors. Since ITK deficient mice show an impairment in IL-4 production from T cells, a cell based assay for IL-4 production is used to measure the cellular potency of the ITK inhibitors of the present invention. In this assay the level of IL-4 is measured from the media of anti-CD3-stimulated murine splenocytes, and the ability of compounds of the present invention to inhibit this response is determined.
Spleens from the mouse strain BALB/c are isolated and used to prepare a suspension of mixed splenocytes. The spleens are homogenized with cell strainer (Falcon Cat#352350 and 5 ml syringe) in RPMI media. The mixture is spun down, and the pellets are suspended in 3 ml of Red Blood Cell Lysing Buffer (Sigma Cat#7757) and left for 10 minutes at room temperature. Cells are spun down again, and resuspended in RPMI with 10% FBS and passed through cell strainer. Total cell numbers are determined with hemocytometer.
Splenocytes are adjusted to a cell density of 10 million per ml of RPMI medium supplemented with 10% Foetal Bovine Serum (FBS) and 100 uls of the suspension plated out per well of a 96 round bottom plate. 50 uls of RPMI medium containing 4× the final concentration of test compound is added per well. For IC50 determination the following concentrations of compound are used. The starting concentration is 10 uM and 7 series of 1:3 dilutions are followed, and each compound concentration is set up in triplicate wells. 50 ul of 4× concentration are added. Cell cultures are then stimulated by addition of 50 ul of a 4 ug/ml solution of anti-CD3 antibody, (BD Bioscience Cat #553166) made up in RPMI plus 10% FBS media, and incubated in a 37° C. CO2 incubator for 3 days. At the end of the 3 day incubation, culture medium is taken and 50 uls used to assay IL-4 production by ELISA (IL-4 ELISA kit from R&D Systems, city. Cat #M4000 kit) according to the standard conditions described by the manufacturer.
IL-4 levels are plotted as a function of compound concentration. The concentration of compound resulting in 50% inhibition of IL-4, termed IC50(IL-4), is determined from the resulting curve.
Assay Procedure • 1. Add 100 ul of 1×10E7/ml mouse splenocytes in RPMI plus 10% FBS media to 96 well round bottom plates. • 2. Add 50 ul of Itk compounds (4× final concentration) in RPMI plus 10% FBS media • 3. Add 50 ul of 4 ug/ml anti-CD3 antibody in RPMI plus 10% FBS media • 4. Incubate at 37 c CO2 incubator for 3 days • 5. Transfer 150 ul culture media into fresh plate • 6. 50 ul of the media is subject to Elisa analysis (R & D Cat #M4000 kit) FlashPlate ITK Protocol for ITK Inhibition Determination

CCN(CC)CCCOc1ccc2cc(-c3n[nH]c4ccsc34)[nH]c2c1 [Example 12, Diethyl-{3-[2-(1H-thieno[3,2-c]pyrazol-3-yl)-1H-indol-6-yloxy]-propyl}-amine]
IC50 (ITK): 5.22 nM

OC1CCCN(CCCOc2ccc3cc(-c4n[nH]c5ccsc45)[nH]c3c2)C1 (stereo not drawn) [Example 8, 1-{3-[2-(1H-Thieno[3,2-c]pyrazol-3-yl)-1H-indol-6-yloxy]-propyl}-piperidin-3-ol]
IC50 (ITK): 1.62 nM
IC50 [1]: 11.3 nM

OC1CCN(CCCOc2ccc3cc(-c4n[nH]c5ccsc45)[nH]c3c2)CC1 [Example 6, 1-{3-[2-(1H-Thieno[3,2-c]pyrazol-3-yl)-1H-indol-6-yloxy]-propyl}-piperidin-4-ol]
IC50 (ITK): 3.65 nM
IC50 [1]: 180 nM

OC1CCCN(CCCOc2ccc3cc(-c4n[nH]c5cc(-c6ccccc6)sc45)[nH]c3c2)C1 (stereo not drawn)
melting point: 213 to 216 °C

c1ccc2c(c1)sc1c(-c3nc4ccc(OCCCN5CCCCC5)cc4[nH]3)n[nH]c12 [Example 20, 3-(5-(3-Piperidin-1-yl-propoxy)-1H-Benzoimidazol-2-yl)-1H-benzo[4,5]thieno[3,2-c]pyrazole hydrochloride]
IC50 (ITK): 112 nM

CN(CCO)CCCOc1ccc2cc(-c3n[nH]c4ccsc34)[nH]c2c1 [Example 15, 2-(Methyl-{3-[2-(1H-thieno[3,2-c]pyrazol-3-yl)-1H-indol-6-yloxy]-propyl}-amino)-ethanol]
IC50 (ITK): 3.26 nM

OC1CCCN(CCCOc2ccc3[nH]c(-c4n[nH]c5ccsc45)cc3c2)C1 (stereo not drawn) [Example 17, 1-{3-[2-(1H-Thieno[3,2-c]pyrazol-3-yl)-1H-indol-5-yloxy]-propyl}-piperidin-3-ol]
IC50 (ITK): 76.3 nM

OC1CCN(CCCOc2ccc3[nH]c(-c4n[nH]c5ccsc45)cc3c2)C1 (stereo not drawn) [Example 19, 1-{3-[2-(1H-Thieno[3,2-c]pyrazol-3-yl)-1H-indol-5-yloxy]-propyl}-pyrrolidin-3-ol]
IC50 (ITK): 45.7 nM

OCC1CCCN(CCCOc2ccc3cc(-c4n[nH]c5ccsc45)[nH]c3c2)C1 (stereo not drawn) [Example 9, (1-{3-[2-(1H-Thieno[3,2-c]pyrazol-3-yl)-1H-indol-6-yloxy]-propyl}-piperidin-3-yl)-methanol]
IC50 (ITK): 2.08 nM
IC50 [1]: 129 nM

COc1ccc2nc(-c3n[nH]c4ccsc34)[nH]c2c1 [Example 2, 6-Methoxy-2-(1H-thieno[3,2-c]pyrazol-3-yl)-1H-benzoimidazole]
IC50 (ITK): 157 nM
IC50 [1]: 164 nM

CN(C)CCCOc1ccc2cc(-c3n[nH]c4ccsc34)[nH]c2c1 [Example 11, Dimethyl-{3-[2-(1H-thieno[3,2-c]pyrazol-3-yl)-1H-indol-6-yloxy]-propyl}-amine]
IC50 (ITK): 24.2 nM

OCC1CCCN(CCCOc2ccc3[nH]c(-c4n[nH]c5ccsc45)cc3c2)C1 (stereo not drawn) [Example 18, (1-{3-[2-(1H-Thieno[3,2-c]pyrazol-3-yl)-1H-indol-5-yloxy]-propyl}-piperidin-3-yl)-methanol]
IC50 (ITK): 41 nM

c1cc2[nH]nc(-c3cc4ccc(OCCCN5CCCCC5)cc4[nH]3)c2s1 [Example 7, 6-(3-Piperidin-1-yl-propoxy)-2-(1H-thieno[3,2-c]pyrazol-3-yl)-1H-indole]
IC50 (ITK): 1.89 nM
IC50 [1]: 163 nM

OC1CCN(CCCOc2ccc3cc(-c4n[nH]c5ccsc45)[nH]c3c2)C1 (stereo not drawn) [Example 14, 1-{3-[2-(1H-Thieno[3,2-c]pyrazol-3-yl)-1H-indol-6-yloxyl]-propyl}-pyrrolidin-3-ol]
IC50 (ITK): 15.1 nM

c1ccc2[nH]c(-c3n[nH]c4ccsc34)nc2c1 [Example 1, 2-(1H-Thieno[3,2-c]pyrazol-3-yl)-1H-benzimidazole]
IC50 (ITK): 167 nM
IC50 [1]: 264 nM

OC1CCN(CCCOc2ccc3cc(-c4n[nH]c5cc(-c6ccccc6)sc45)[nH]c3c2)CC1
melting point: 239 to 242 °C

O=C(c1cc2[nH]nc(-c3cc4cc(CO)ccc4[nH]3)c2s1)N1CCN(c2ccc(F)cc2)CC1
melting point: 156 to 158 °C

C=CCN(CC=C)CCCOc1ccc2cc(-c3n[nH]c4ccsc34)[nH]c2c1 [Example 13, Diallyl-{3-[2-(1H-thieno[3,2-c]pyrazol-3-yl)-1H-indol-6-yloxy]-propyl}-amine]
IC50 (ITK): 12.3 nM

CCN1CCN(CCCOc2ccc3cc(-c4n[nH]c5ccsc45)[nH]c3c2)CC1 [Example 10, 6-[3-(4-Ethyl-piperazin-1-yl)-propoxy]-2-(1H-thieno[3,2-c]pyrazol-3-yl)-1H-indole]
IC50 (ITK): 2.94 nM
IC50 [1]: 289 nM

c1cc2[nH]nc(-c3cc4cc(OCCCN5CCCCC5)ccc4[nH]3)c2s1 [Example 5, 5-(3-Piperidin-1-yl-propoxy)-2-(1H-thieno[3,2-c]pyrazol-3-yl)-indole]
IC50 (ITK): 16.6 nM
IC50 [1]: 153 nM

OC1CCN(CCCOc2ccc3[nH]c(-c4n[nH]c5ccsc45)cc3c2)CC1 [Example 16, 1-{3-[2-(1H-Thieno[3,2-c]pyrazol-3-yl)-1H-indol-5-yloxy]-propyl}-piperidin-4-ol]
IC50 (ITK): 40.9 nM

COc1ccc2nc(-c3n[nH]c4c3sc3ccccc34)[nH]c2c1 [Example 3, 3-(6-Methoxy-1H-benzimidazol-2-yl)-1H-benzo[4,5]thieno[3,2-c-]pyrazole]
IC50 (ITK): 86 nM
IC50 [1]: 2900 nM

OC(c1ccc2cc(-c3n[nH]c4ccsc34)[nH]c2c1)(C1CC1)C1CC1
melting point: 110 to 112 °C

COc1cccc(-c2cc3[nH]nc(-c4cc5ccc(OCCCN6CCC(O)CC6)cc5[nH]4)c3s2)c1
melting point: 205 to 207 °C
